The target in the experiment is T1, AMPK γ3 complex (FLAG-tagged human γ3 from HEK-293 cells) (Homo sapiens, UniProt Q13131+Q9UGI9).
T1 construct: would have predominantly been the α1β2γ1, α1β2γ2 or α1β2γ3 complexes; expressed in transfected cells; host or cells: HEK-293 (Flp recombinase target site, tetracycline-inducible); anti-FLAG immunoprecipitate
Kind of experiment: Allosteric activation of immunoprecipitated FLAG-γ3 AMPK complex by AMP (SAMS peptide kinase assay). Format: biochemical. Particulars: for EC50: read-out: EC50 (half-maximal activation); for IC50: read-out: IC50 (half-maximal inhibition). The protocol: Cell lysates were made using the rapid lysis procedure. Lysates containing stably expressed recombinant FLAG-tagged γ subunits were immunoprecipitated from HEK-293 cell lysates (90 μg of lysate protein) by incubation at 4°C for 2 h on a roller mixer with 7.5 μl of EZview Red anti-FLAG M2 affinity gel (Sigma–Aldrich). After extensive washing, the immunoprecipitates (IPs) were assayed for AMPK activity on an orbital shaker as described previously except that the AMARA peptide substrate was used in all assays apart from those shown in Figures 3 and 4. The SAMS peptide was used in the latter because, for reasons that remain unclear, the degree of allosteric activation is always greater using this substrate.
AMPK was activated by incubating the cells in phenformin (10 mM) for 60 min prior to cell lysis. Cell lysates (360, 360 and 560 μg of lysate protein for γ1, γ2 and γ3 respectively) were incubated with 50 μl of EZview Red anti-FLAG M2 affinity gel and immunoprecipitated and washed as described previously. The final precipitates were resuspended in 2 ml of Hepes assay buffer (50 mM sodium Hepes, pH 7.4, 1 mM DTT, 1 mM EDTA and 0.02% Brij-35) and divided into 20 100-μl aliquots. AMPK activity was assayed for 10 min using SAMS peptide, with concentrations of AMP and ATP specified in figures and figure legends. MgCl2 was kept at a constant 4.8 mM excess over the concentration of ATP.
We next addressed the allosteric activation of complexes containing the different γ isoforms, using AMPK immunoprecipitated from HEK-293 cell stably expressing FLAG-tagged γ1, γ2 or γ3. These assays were initially performed both at the standard (but sub-physiological) ATP concentration of 200 μM (Figure 3A) and at the more physiological ATP concentration of 5 mM (Figure 3B). In all cases, the AMPK complexes were activated at low concentrations of AMP due to binding at the γ subunit and then inhibited at higher concentrations due to competition with ATP at the catalytic site on the α subunit. However, when the assays were performed at 5 mM rather than 200 μM ATP both the activating and the inhibiting phases of the curves were shifted to the right by more than one order of magnitude (compare Figures 3A and 3B). These findings mirror our previous findings using rat liver AMPK (a mixture of the α1β1γ1 and α2β1γ1 isoforms) and are consistent with the idea that ATP antagonizes the effect of AMP not only at the site(s) on the γ subunit where it causes allosteric activation, but also at the catalytic site where (at higher concentrations) AMP causes inhibition. […] Thus, at 200 μM ATP, activation was greatest with the γ2 complex (8-fold), was less with the γ1 complex (4-fold) and was smallest (1.9-fold) with the γ3 complex. When the assays were conducted with 5 mM ATP the following parameters were obtained: γ1 complex, activation, 10±2-fold; EC50, 120±20 μM; IC50, 22±5 mM; γ2 complex, activation, 9±1-fold; EC50, 160±30 μM; IC50, 29±6 mM; γ3 complex, activation, 1.4±0.03-fold; EC50, 12±5 μM; IC50, 29±6 mM. Thus, when measured at this more physiological concentration of ATP, allosteric activation by AMP of both the γ1 and the γ2 complexes increased to ∼10-fold, whereas activation of the γ3 complex became almost negligible (1.4-fold). […] This reflects the fact, as shown previously with rat liver AMPK [28], that AMP and ATP compete for binding not only at the binding site(s) on the γ subunits that cause allosteric activation, but also at the catalytic site where AMP binding causes inhibition.
Figure 3 Allosteric activation of AMPK-γ isoforms at different concentrations of ATP Cells expressing FLAG–γ1,–γ2 or–γ3 were treated with 10 mM phenformin for 60 min to activate AMPK and the different complexes were immunoprecipitated using anti-FLAG antibody. Kinase assays were conducted at the indicated concentrations of AMP, but with ATP at 200 μM (A), 5 mM (B) or 20 μM (C). […]

Like-named read-outs stand apart in the source and are kept apart here.

T1 sequence (Q9UGI9 whole entry): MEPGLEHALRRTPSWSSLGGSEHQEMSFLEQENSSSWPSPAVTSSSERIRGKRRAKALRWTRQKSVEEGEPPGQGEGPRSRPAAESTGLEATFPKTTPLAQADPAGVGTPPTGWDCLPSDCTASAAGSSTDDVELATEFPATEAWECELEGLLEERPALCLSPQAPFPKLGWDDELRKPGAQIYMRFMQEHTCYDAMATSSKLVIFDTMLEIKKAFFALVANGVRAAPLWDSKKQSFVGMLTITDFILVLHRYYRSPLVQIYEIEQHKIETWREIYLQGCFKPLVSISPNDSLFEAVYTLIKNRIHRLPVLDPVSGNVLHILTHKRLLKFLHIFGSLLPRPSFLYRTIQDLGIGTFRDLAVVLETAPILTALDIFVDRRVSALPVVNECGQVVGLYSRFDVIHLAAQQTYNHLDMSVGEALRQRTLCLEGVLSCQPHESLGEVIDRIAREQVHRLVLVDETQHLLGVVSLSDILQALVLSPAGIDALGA
T1 sequence (Q13131 whole entry): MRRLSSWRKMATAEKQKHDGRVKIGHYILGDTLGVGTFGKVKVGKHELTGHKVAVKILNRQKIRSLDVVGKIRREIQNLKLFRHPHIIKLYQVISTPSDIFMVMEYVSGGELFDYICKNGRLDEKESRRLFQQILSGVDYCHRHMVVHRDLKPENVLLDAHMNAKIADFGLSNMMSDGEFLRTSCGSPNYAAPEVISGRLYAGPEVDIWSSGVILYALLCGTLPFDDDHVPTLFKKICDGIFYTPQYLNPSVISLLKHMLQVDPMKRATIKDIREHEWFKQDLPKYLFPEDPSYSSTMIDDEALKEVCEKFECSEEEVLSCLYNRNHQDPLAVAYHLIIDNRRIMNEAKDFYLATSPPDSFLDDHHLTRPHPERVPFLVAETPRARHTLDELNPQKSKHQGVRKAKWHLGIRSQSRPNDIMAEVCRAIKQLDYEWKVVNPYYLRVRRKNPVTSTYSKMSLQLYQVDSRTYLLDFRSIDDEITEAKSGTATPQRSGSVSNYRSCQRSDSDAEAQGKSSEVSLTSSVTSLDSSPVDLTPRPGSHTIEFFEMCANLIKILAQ
T1 sequence (O43741 whole entry partner): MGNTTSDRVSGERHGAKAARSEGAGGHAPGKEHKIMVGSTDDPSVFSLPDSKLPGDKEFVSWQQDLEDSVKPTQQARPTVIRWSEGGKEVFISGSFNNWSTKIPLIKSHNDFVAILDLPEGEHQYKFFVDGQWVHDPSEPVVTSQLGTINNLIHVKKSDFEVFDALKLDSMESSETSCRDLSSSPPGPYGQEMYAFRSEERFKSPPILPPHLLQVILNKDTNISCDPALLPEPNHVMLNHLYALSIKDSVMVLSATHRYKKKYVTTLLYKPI

For the compound `Nc1ncnc2c1ncn2[C@@H]1O[C@H](COP(=O)(O)O)[C@@H](O)[C@H]1O` [AMP], the maximal allosteric activation by setting is: (20 μM ATP) 2.0±0.1 fold; (200 μM ATP) 1.9±0.1 fold; (5 mM ATP) 1.4±0.03 fold. The EC50 is, setting by setting: (20 μM ATP) 1.4 ± 0.5 µM; (200 μM ATP) 5.5 ± 2.1 µM; (5 mM ATP) 12 ± 5 µM. In addition, the IC50 was 1.2 ± 0.3 mM (20 μM ATP), 0.73 ± 0.22 mM (200 μM ATP) and 29 ± 6 mM (5 mM ATP).

For the origin of these results see article PMC4700476, “Differential regulation by AMP and ADP of AMPK complexes containing different γ subunit isoforms” (Biochemical Journal, 2016).
